From US20220160686A1, “MACROCYCLIC AZOLOPYRIDINE DERIVATIVES AS EED AND PRC2 MODULATORS” (Fulcrum Therapeutics, Inc., priority 2019, published 2022) come the findings set out here.

The structures appear in SMILES notation. pEC50: −log10 of the molar value.

The subject of one assay is HUDEP2 cells. As to the kind of experiment: Fetal hemoglobin (HbF) upregulation assay of HUDEP2 cells. Type of assay: cell-based. The procedure:
HUDEP2 cells were maintained and passaged every 2-3 days by seeding 300,000 viable cells/mL in a culture flask containing HUDEP2 Growth Media comprised of StemSpan SFEM (Stemcell Technologies #09650), 50 ng/mL human stem cell factor (Stemcell Technologies #78062.2), 3 IU/mL erythropoietin (ThermoFisher #PHC2054), 1 μM dexamethasone (Sigma #D2915), and […] doxycycline (Sigma #D3072). HUDEP2 cells were differentiated towards erythroid lineage by seeding at 25,000 viable cells/well in 96-well V-Bottom plates (Corning #3894) containing 135 μL HUDEP2 Differentiation Media comprised of Iscove's Modified Dulbecco's Medium (Stemcell Technologies #36150), 1% L-glutamine (ThermoFisher #25030081), 2% penicillin-streptomycin (ThermoFisher #15140122), 330 μg/mL holo-human transferrin (Sigma #T0665), 2 IU/mL heparin (Stemcell Technologies #07980), 10 μg/mL recombinant human insulin (Sigma #91077C), 3 IU/mL erythropoietin (ThermoFisher #PHC2054), 100 ng/mL human stem cell factor (Stemcell Technologies #78062.2), and 4% fetal bovine serum (ThermoFisher #A3160502). Chemical probes for treatment were resuspended in 100 μL of Iscove's Modified Dulbecco's Medium (Stemcell Technologies #36150) to a 10× concentration, and 15 μL of 10× concentrated chemical probes were added to each well for a total well volume of 150 μL. HUDEP2 cells were left to incubate at 37° C., 85% relative humidity, and 5% CO2 for 3 days. On Day 3, assay plates containing HUDEP2 cells were centrifuged at 500×g for 5 minutes. After centrifugation cells were pelleted to the bottom of the well, and 100 μL of media aspirated from the well without disturbing the cells. Then 90 μL of fresh HUDEP2 Differentiation Media and 10 μL of 10× concentrated chemical probes were added back each well. For the H3K27me3 assay, cells were harvested on Day 4 of treatment. The HUDEP2 cells were centrifuged at 500×g for 5 minutes and all media was aspirated from the well. Then 150 μL of phosphate buffered saline (ThermoFisher #10010023) was added to each well to resuspend the cells. Finally, 50 μL of the HUDEP2 cell suspension from each well was transferred to a poly-d-lysine coated 384-well plate (Corning Cat #356697) and centrifuged at 1000×g for 5 minutes before proceeding to ICC Fix and Stain Protocol. Assay plates for the HbF assay were returned to the incubator until Day 5, where the media was exchanged and chemical probes added exactly as on Day 3. On Day 7 of the HbF assay, the HUDEP2 cells were harvested in the same manner as described for the H3K27me3 assay before proceeding to ICC Fix and Stain Protocol.
The Fix and Stain Protocol was the same for HEK293T, HUDEP2, and Primary CD34+ cell assays except the specific primary and secondary antibodies used for detection. Following 4 days of compound treatment, the respective plates were washed once with 25 μL of PBS (ThermoFisher #10010023) and fixed with 25 μL of 4% paraformaldehyde (ThermoFisher #28908) for 10 minutes at room temperature. The plates were then washed three times with 25 μL of PBS. Subsequent to that, the cells were permeabilized and blocked for 1 hour at room temperature in 25 μL of Perm/Block buffer comprised of IX PBS, 1% bovine serum albumin (ThermoFisher #A3294), 10% fetal bovine serum (ThermoFisher #A3160502), 0.3M glycine (Sigma #G7126), and 0.1% tween-20 (Sigma #P7949). This was followed by additional washing (three times) of the plates with 25 μL of 0.1% tween in PBS.
Plates for the HbF assay were treated similarly as described above except that HbF Primary Antibody (ThermoFisher #MHFH01-4) diluted 1:40 in 0.1% tween-20 in PBS and Hoescht (ThermoFisher #H3570) diluted 1:2000 in 0.1% tween-20 in PBS were used for detection.
The plates were then scanned on the CX7 at 10× magnification, and 9 images were acquired per well. The software algorithm then identified nuclei and calculated a total nuclei count using the Hoechst staining on channel 1. […]

Assay [1] deals with Human Mobilized Peripheral Blood Primary CD34+ cells. As to the kind of experiment: Fetal hemoglobin (HbF) upregulation assay of CD34+ cells. The class given is cell-based. The procedure:
Human Mobilized Peripheral Blood Primary CD34+ cells were expanded from thaw by seeding 100,000 viable cells/mL in a culture flask containing CD34+ Expansion Media comprised of StemSpan SFEMII (Stemcell Technologies #09655), 1% erythroid expansion supplement (Stemcell Technologies #02692), and 1 μM dexamethasone (Sigma #D2915). The cells were supplemented by adding an additional IX culture volume of CD34+ Expansion Media on Day 3 after thaw. After 7 days of expansion, Primary CD34+ cells were differentiated towards erythroid lineage by seeding at 15,000 viable cells/well in 96-well V-Bottom plates (Corning #3894) containing 135 μL CD34+ Differentiation Media comprised of StemSpan SFEMII (Stemcell Technologies #09655), 3% normal human serum (Sigma #H4522), 3 IU/mL erythropoietin (ThermFisher #PHC2054). Chemical probes for treatment were resuspended in 100 μL of Iscove's Modified Dulbecco's Medium (Stemcell Technologies #36150) to a 10× concentration, and 15 μL of 10× concentrated chemical probe was added to each well for a total well volume of 150 μL. Primary CD34+ cells were left to incubate at 37° C., 85% relative humidity, and 5% C02 for 3 days. On Day 3, assay plates containing Primary CD34+ cells were centrifuged at 500×g for 5 minutes. After centrifugation cells were pelleted to the bottom of the well, and 100 μL of media aspirated from the well without disturbing the cells. Then 90 μL of fresh CD34+ Differentiation Media and 10 μL of 10× concentrated chemical probes were added back each well. For the H3K27me3 assay, cells were harvested on Day 4 of treatment. The Primary CD34+ cells were centrifuged at 500×g for 5 minutes and all media was aspirated from the well. Then 150 μL of phosphate buffered saline (ThermoFisher #10010023) was added to each well to resuspend the cells. Finally, 50 μL of the Primary CD34+ cell suspension from each well was transferred to a poly-d-lysine coated 384-well plate (Corning Cat #356697) and centrifuged at 1000×g for 5 minutes before proceeding to ICC Fix and Stain Protocol. Assay plates for the HbF assay were returned to the incubator until Day 5, where the media was exchanged and chemical probes added exactly as on Day 3. On Day 7 of the HbF assay, the Primary CD34+ cells were harvested in the same manner as described for the H3K27me3 assay before proceeding to ICC Fix and Stain Protocol. […]
The plates were then scanned on the CX7 at 10× magnification, and 9 images were acquired per well. The software algorithm then identified nuclei and calculated a total nuclei count using the Hoechst staining on channel 1. After nuclei were identified, the algorithm calculated the average nuclear intensity of the H3K27me3 or HbF staining on channel 2. […]

As to `Cc1ncc(-c2cc3c(n4cnnc24)NCc2c(F)ccc4c2[C@@H](CO4)CO3)c(C)n1` [Compound 13, (S)-4-(2,4-dimethylpyrimidin-5-yl)-12-fluoro-7a,8,13,14-tetrahydro-7H-[1,2,4]triazolo[4′,3′:1,6]pyrido[3,2-b]benzofuro[4,3-fg][1,4]oxazonine], the pEC50 in the assay with HUDEP2 cells is 7.00 to 7.30.

`Cc1cn(-c2cc3c(n4cnnc24)NCc2c(F)ccc4c2[C@@H](CO4)CO3)cn1` [Compound 15, (S)-12-fluoro-4-(4-methyl-1H-imidazol-1-yl)-7a,8,13,14-tetrahydro-7H-[1,2,4]triazolo[4′,3′:1,6]pyrido[3,2-b]benzofuro[4,3-fg][1,4]oxazonine]: the pEC50 in assay [1] is 6.30 to 7.00.

`Fc1cncnc1-c1cc2c(n3cnnc13)NCc1c(F)ccc3c1[C@@H](CO3)CO2` [Compound 164, (S)-12-fluoro-4-(5-fluoropyrimidin-4-yl)-7a,8,13,14-tetrahydro-7H-[1,2,4]triazolo[4′,3′:1,6]pyrido[3,2-b]benzofuro[4,3-fg][1,4]oxazonine] had a pEC50 in assay [1] of over 7.60.

For the molecule `Cn1nccc1-c1cc2c(n3cnnc13)NCc1c(F)ccc3c1C(CO3)CO2` (stereo not shown) [Example 17], the pEC50 (with HUDEP2 cells; in assay [1]) was over 7.60 in each case.

In turn, `COc1ncc(-c2cc3c(n4cnnc24)NCc2c(F)ccc4c2[C@H](CO4)CO3)cn1` [Example 30] gave a pEC50 in the assay on HUDEP2 cells of 6.30 to 7.00.

With `CS(=O)(=O)c1ccc(-c2cc3c(n4cnnc24)NCc2c(F)ccc4c2C(CO4)CO3)cc1` (stereo not shown) [Example 36], in the assay with HUDEP2 cells, the pEC50 was 7.00 to 7.30.

As to `Cc1cc(C#N)ccc1-c1cc2c(n3cnnc13)NCc1c(F)ccc3c1[C@H](CO3)CO2` [Example 49], the pEC50 in the assay with HUDEP2 cells was 7.00 to 7.30.

With `Cn1nc(C(F)(F)F)cc1-c1cc2c(n3cnnc13)NCc1c(F)ccc3c1[C@H](CO3)CO2` [Example 115], the pEC50 in the assay on HUDEP2 cells is over 7.60; in assay [1] it was 7.00 to 7.30.

Broadly, the pEC50 is −log10 of the EC50, conventionally taken in molar units. Low values mean a large EC50, high ones a small EC50.
